Data reported in patent US8404650B2, “Methods of treating cancer with doxazolidine and prodrugs thereof” (priority 2005, dated 2013).
Where two headings read alike, the source gives them in different places.

What was measured:
[1] = tested on: MCF-7/Adr cells; assay: Drug uptake by MCF-7/Adr cells, flow cytometry of drug fluorescence; type: cell-based; details: for Drug uptake relative to Doxorubicin: MCF-7/Adr, 500 nM (equivalents), up to 3 h
Method: Drug uptake was measured by flow cytometery. Cells were dissociated with trypsin/EDTA, counted, and suspended in growth media to a concentration of 1×10^5 cells/mL. This cell suspension was dispensed in 2.5 mL aliquots into 6-well tissue culture plates. Plates were then incubated for 24 h at 37° C. in a humidified atmosphere of 5% CO2 and 95% air. The growth media was replaced with 2 mL of fresh growth media prior to addition of the drug. Doxaz, DoxF, and Doxorubicin HCl were dissolved in DMSO each at a concentration of 50 μM. The concentration was then corrected by measuring the solution absorbance at 480 nm (ε=11,500 M^−1 cm^−1). Drug solution (20 μL) was added to an individual well and was incubated for 5 min, 15 min, 30 min, 1 h, 2 h or 3 h at 37° C. in a humidified atmosphere of 5% CO2 and 95% air. All drug treatments were performed so all treatment times would end simultaneously. After treatment, culture media was removed, cells washed once with 0.5 mL HBSS, washed once with 0.5 mL trypsin/EDTA, and 0.5 mL trypsin/EDTA was added and cells were incubated for 5 min. After all cells were trypsinized, cells were aspirated with 1.5 mL cold D-PBS (Dulbecco's phosphate buffered saline, no calcium or magnesium) and this solution was added to 3 mL of cold D-PBS (4.5 mL total D-PBS) in a conical vial. Cells were centrifuged at 200 g for 5 min, and D-PBS was decanted off. Cells were washed once more in 5 mL cold D-PBS, centrifuged at 200 g for 5 min and D-PBS was decanted off. […] Cells were analyzed with excitation at 488 nm (15 mW Ar ion laser), with emission monitored between 570 nm and 600 nm. Instrument settings were optimized for the cell line and held constant for all experiments; for the anthracycline fluorescence analysis, 10,000 cells were analyzed for each sample. The data are presented as the mean fluorescence for each condition.
Uptake of pentyl PABC-Doxaz and Dox by multidrug resistant MCF-7/Adr breast cancer cells and SK-HEP-1 liver cancer cells in the presence of fetal bovine serum was determined by flow cytometry using drug fluorescence as a measure of drug in cells.

[2] = tested on: SK-HEP-1; assay: Growth inhibition of SK-HEP-1 liver cancer cells; type: cell-based, human; details: for IC50: Homo sapiens, SK-HEP1
Description: (§1) Cell growth inhibition experiments initially focused on MCF-7, MCF-7/Adr, SK-HEP-1, and Hep G2 cancer cells as well as rat cardiomyocytes as a measure of cardiotoxicity and Vero cells (green monkey kidney cells) as an additional measure of normal cell toxicity. […]

[3] = tested on: MCF-7/Adr; assay: Growth inhibition of multidrug resistant MCF-7/Adr breast cancer cells (crystal violet); type: cell-based; details: for IC50: Homo sapiens, NCI/ADR-RES
Method: (§2) In vitro Activity. […] This cell suspension was dispensed in 200 μL aliquots (1000 cells/well) into the inside wells of 96-well tissue culture plates. Outside wells contained 200 μL of media. […] The medium was replaced with 90 μL of growth medium prior to addition of the drug. Doxaz was dissolved in DMSO at concentrations ranging from 50 μM to 1 mM. […] Serial dilutions (1:3 and 1:10) were made in sterile DMSO to yield seven solutions of decreasing drug concentration at 100× the respective working concentrations. […] Additionally, two lanes were treated with 10 μL of growth medium containing 10% sterile DMSO and one lane was treated with 90 μL of 1.5 M Tris HCl. […]
(§3) Cell growth inhibition experiments initially focused on MCF-7, MCF-7/Adr, SK-HEP-1, and Hep G2 cancer cells as well as rat cardiomyocytes as a measure of cardiotoxicity and Vero cells (green monkey kidney cells) as an additional measure of normal cell toxicity.
(§4) Activity of plasmin-activated prodrugs.
(§5) A more thorough characterization of the growth inhibition of a variety of cancer cells as well as rat cardiomyocytes by Formula IV (aFK-PABC-Doxaz) was evaluated in comparison with inhibition of growth by Doxaz, Dox and aFK-PABC-Dox. Cells were treated with drug for 3 h and colony growth was measured at 3 to 5 days when cells reached about 80% confluence. […] The breast cancer cell lines represent the multi-drug resistant (MDR) phenotype with MCF-7/Adr cells and a cell line that is transfected with the gene for urokinase plasminogen activator (uPA), the primary enzyme responsible for cleavage of plasminogen to plasmin. Rat cardiomyocytes served as a model for comparison of drug cardiotoxicity.

[4] = tested on: DU-145; assay: Growth inhibition of DU-145 prostate cancer cells; type: cell-based; details: for IC50: Homo sapiens
Method: as §2
(§6) SHP-77 small cell lung cancer cells were also of interest because they express modest amounts of both enzymes. Inhibition of the growth of cardiomyocytes was used as a measure of cardiotoxicity, and inhibition of the growth of Vero cells, green monkey kidney cells, was again used as another measure of toxicity to normal cells.
as §5, with “Cells were treated with drug for 3 h and colony growth was measured at 3 to 5 days when cells reached about 80% confluence.” left out

[5] = tested on: MCF-7; assay: Growth inhibition of MCF-7 sensitive breast cancer cells (colony formation, crystal violet); type: cell-based, human; details: for IC50: Homo sapiens
Method: as §2, §3, §4, §5

[6] = tested on: Hep G2; assay: Growth inhibition of Hep G2 liver cancer cells; type: cell-based, human; details: for IC50: Homo sapiens, HepG2
Description: as §1

[7] = tested on: Vero cells; assay: Growth inhibition of Vero cells as a measure of normal cell toxicity (MTT); type: cell-based, green monkey; details: for IC50: Chlorocebus sabaeus, Vero
Description: as §3, §6

[8] = tested on: cancer cells; assay: Cancer cell growth inhibition, statements over several or unnamed cell lines; type: cell-based
Method: (§7) In vitro Activity. […] This cell suspension was dispensed in 200 μL aliquots (1000 cells/well) into the inside wells of 96-well tissue culture plates. Outside wells contained 200 μL of media. […] The medium was replaced with 90 μL of growth medium prior to addition of the drug. Doxaz was dissolved in DMSO at concentrations ranging from 50 μM to 1 mM. […] Serial dilutions (1:3 and 1:10) were made in sterile DMSO to yield seven solutions of decreasing drug concentration at 100× the respective working concentrations. […] Additionally, two lanes were treated with 10 μL of growth medium containing 10% sterile DMSO and one lane was treated with 90 μL of 1.5 M Tris HCl. The cells were incubated at 37° C. for 3 h, at which time the drug solutions were replaced with 200 μL of fresh growth medium.
as §5

[9] = tested on: MDA-MB-435; assay: Growth inhibition of MDA-MB-435 breast cancer cells; type: cell-based; details: Homo sapiens
Method: as §7, §4

[10] = read-out: IC50 value for cell growth inhibition, MCF-7/Adr
[11] = 24 h drug treatment, crystal violet
[12] = 3 h, read-out: IC50 MCF-7/Adr + plasmin
[13] = DU-145, read-out: IC50 DU-145, top line of the cell
[14] = MDA-MB-435, read-out: IC50 MDA-MB-435, top line of the cell
[15] = 3 h drug treatment, crystal violet, read-out: Growth inhibition IC50, SK-HEP-1, 3 h (converted)
[16] = 3 h drug treatment, read-out: Growth inhibition IC50, Vero, 3 h (converted)
[17] = 24 h drug treatment, read-out: Growth inhibition IC50, Vero, 24 h (converted)
[18] = 3 h, read-out: Growth inhibition IC50, MCF-7/Adr, 3 h
[19] = 3 h drug treatment, crystal violet, read-out: Growth inhibition IC50, Hep G2, 3 h (converted)

## COc1cccc2c1C(=O)c1c(O)c3c(c(O)c1C2=O)C[C@@](O)(C(=O)CO)C[C@@H]3OC1CC2C(OCN2CN2COC3C(C)OC(O[C@H]4C[C@](O)(C(=O)CO)Cc5c(O)c6c(c(O)c54)C(=O)c4c(OC)cccc4C6=O)CC32)C(C)O1 (some centres unmarked) [DoxF, Doxoform, reference compound]
[1]
  Drug uptake relative to Doxorubicin: significantly more
[2]
  IC50 lower than doxorubicin, SK-HEP-1: more than 25 fold
[3]; 3 h, read-out: IC50 MCF-7/Adr
  IC50: 1 nM
[3]; [10]
  IC50: ~2 nM
[4]; DU-145, 3 h, read-out: IC50 DU-145
  IC50: 3 nM
[5]; MCF7, 3 h, read-out: IC50 MCF-7
  IC50: 2 nM
[6]
  IC50 lower than doxorubicin, Hep-G2: more than 25 fold

## CCCCCOC(=O)Nc1ccc(COC(=O)N2COC3C(C)OC(OC4CC(O)(C(=O)CO)Cc5c(O)c6c(c(O)c54)C(=O)c4c(OC)cccc4C6=O)CC32)cc1 (centres unmarked) [Pentyl PABC-Doxaz, Pentyl 4-(N-doxazolidinylcarbonyloxymethyl)phenylcarbamate]
[1]; in the presence of fetal bovine serum
  Uptake relative to Dox, MCF-7/Adr: taken up much better
[2]; [11]
  Growth inhibition IC50, SK-HEP-1, 24 h: −6.0 ± 0.06 log of the molar concentration
[7]; 24 h drug treatment
  Growth inhibition IC50, Vero, 24 h: −6.0 ± 0.04 log of the molar concentration
[3]; [11]
  Growth inhibition IC50, MCF-7/Adr, 24 h: −6.5 ± 0.06 log of the molar concentration
[4]; [11]
  Cell growth inhibition IC50, DU-145: −6.7 ± 0.07 log of molar concentrations
[5]; [11]
  Growth inhibition IC50, MCF-7, 24 h: −5.6 ± 0.3 log of the molar concentration
[6]; [11]
  Growth inhibition IC50, Hep G2, 24 h: −7.3 ± 0.2 log of the molar concentration

## COc1cccc2c1C(=O)c1c(O)c3c(c(O)c1C2=O)C[C@@](O)(C(=O)CO)C[C@@H]3O[C@H]1C[C@H]2[C@H](OCN2C(=O)OCc2ccc(NC(=O)[C@H](CCCCN)NC(=O)[C@H](Cc3ccccc3)NC(=O)[C@@H](C)N)cc2)[C@H](C)O1 [Formula IV, D-Ala-L-Phe-L-Lys-p-aminobenzyloxycarbonyl-Doxaz]
[8]; 0.01 unit/mL plasminogen, on average
  Increase of activity on addition of plasminogen: 0.3 log
[8]; most of the cancer cells, 3 h treatment
  Growth inhibition better than aFK-PABA-Dox: ≥ 0.5 log
[8]; read-out: Cancer cell growth inhibition IC50 in the presence of plasmin
  IC50: 5 nM
[3]; [12]
  IC50: 10 nM
[3]; read-out: IC50 MCF-7/Adr
  IC50: 100 nM
[4]; DU-145, read-out: IC50 DU-145 + plasmin
  IC50: 6 nM
[4]; [13]
  IC50: 160 nM
[5]; MCF7, 3 h, read-out: IC50 MCF-7 + plasmin
  IC50: 5 nM
[5]; MCF7, read-out: IC50 MCF-7
  IC50: 50 nM
[9]; [14]
  IC50: 240 nM
[9]; MDA-MB-435, + plasmin, second stacked value, read-out: IC50 MDA-MB-435 + plasmin
  IC50: 40 nM

## COc1cccc2c1C(=O)c1c(O)c3c(c(O)c1C2=O)C[C@@](O)(C(=O)CO)C[C@@H]3O[C@H]1C[C@@H]2NCO[C@@H]2[C@H](C)O1 [Doxaz, Doxazolidine]
[1]
  Drug uptake relative to Doxorubicin: significantly more
[2]; [15]
  IC50: 3.98 nM
[8]; variety of multidrug-resistant cancer cells
  More toxic than Doxorubicin to multidrug-resistant cancer cells: 500-10,000 fold
[7]; [16]
  IC50: 6.31 nM
[7]; [17]
  IC50: 7.94 nM
[3]; [18]
  IC50: 3.16 nM
[3]; read-out: IC50 MCF-7/Adr
  IC50: 3 ± 0.2 nM
[3]; [10]
  IC50: ~2 nM
[4]; DU-145, read-out: IC50 DU-145
  IC50: 4 ± 0.6 nM
[5]; MCF7, 3 h, read-out: Growth inhibition IC50, MCF-7, 3 h
  IC50: 3.16 nM
[5]; MCF7, read-out: IC50 MCF-7
  IC50: 3 ± 0.2 nM
[9]; MDA-MB-435, 3 h drug treatment, growth at 5 days, read-out: IC50 MDA-MB-435
  IC50: 7 ± 0.3 nM
[6]; [19]
  IC50: 10 nM

## COc1cccc2c1C(=O)c1c(O)c3c(c(O)c1C2=O)C[C@@](O)(C(=O)CO)C[C@@H]3O[C@H]1C[C@H](N)[C@H](O)[C@H](C)O1 [Doxorubicin, reference compound]
[2]; [15]
  IC50: 100 nM
[2]; 24 h drug treatment, crystal violet, read-out: Growth inhibition IC50, SK-HEP-1, 24 h (converted)
  IC50: 50.1 nM
[8]; 0.01 unit/mL of plasmin
  Effect of added plasmin on activity: no effect
[7]; [16]
  IC50: 1000 nM
[7]; [17]
  IC50: 501 nM
[3]; [18]
  IC50: 6310 nM
[3]; [12]
  IC50: 20000 nM
[3]; 24 h, read-out: Growth inhibition IC50, MCF-7/Adr, 24 h
  IC50: 2510 nM
[3]; read-out: IC50 MCF-7/Adr
  IC50: 10000 nM
[4]; DU-145, 24 h, read-out: Cell growth inhibition IC50, DU-145
  IC50: 31.6 nM
[4]; DU-145, read-out: IC50 DU-145
  IC50: 240 nM
[4]; [13]
  IC50: 300 nM
[5]; MCF7, 3 h, read-out: Growth inhibition IC50, MCF-7, 3 h, 3 h drug treatment, crystal violet
  IC50: 316 nM
[5]; MCF7, 3 h, read-out: IC50 MCF-7 + plasmin, + plasmin (15 μg/ml)
  IC50: 300 nM
[5]; MCF7, 24 h, read-out: Growth inhibition IC50, MCF-7, 24 h, 24 h drug treatment, crystal violet
  IC50: 12.6 nM
[5]; MCF7, read-out: IC50 MCF-7, 3 h drug treatment, growth at 5 days
  IC50: 200 ± 26 nM
[5]; MCF7, read-out: IC50 MCF-7, no plasmin or aprotinin added
  IC50: 300 nM
[9]; MDA-MB-435, read-out: IC50 MDA-MB-435
  IC50: 150 ± 14 nM
[9]; [14]
  IC50: 150 nM
[6]; [19]
  IC50: 200 nM
[6]; 24 h drug treatment, crystal violet, read-out: Growth inhibition IC50, Hep G2, 24 h (converted)
  IC50: 31.6 nM
